Usually IC50 stands for the point on the concentration scale where inhibition reaches its midpoint.

IC50 data for eight compounds are collected here from ChEMBL document CHEMBL5614456, “Emerging Techniques in Cancer Therapy: Precision Targeting for Improved Outcomes” (ACS Med Chem Lett, 2024).

SMILES strings stand for the structures.

The experiment in a line: Inhibition of ERK phosphorylation at Thr202/Tyr204 residues in human ASPC1 cells harboring KRAS G12D mutant […] incubated for 24 hrs by ELISA. Type of experiment: cell-based. The settings on record: ASPC1, 24 h. For orientation: In an ELISA, binding on a coated surface is turned into a signal by an enzyme label.
Take `CC(C)(C)OC(=O)N1C[C@@H]2C[C@H]1CN2c1nc(OC2CCOCC2)nc2c(OCc3ccccc3)c(Br)c(C3CC3)cc12`: the IC50 was 15 nM.
In the case of `CCSc1nc(N2C[C@@H]3C[C@H]2CN3C(=O)OC(C)(C)C)c2cc(C3CC3)c(Br)c(OCc3ccccc3)c2n1`, the IC50 worked out at 26 nM.
In the case of `CCCCCCCCCCCCSc1nc(N2C[C@@H]3C[C@H]2CN3C(=O)OC(C)(C)C)c2cc(C3CC3)c(Br)c(OCc3ccccc3)c2n1`, the IC50 is 18 nM.
Regarding `Cc1c(F)cc2c(cnn2C2CCCCO2)c1-c1c(C2CC2)cc2c(N3C[C@@H]4C[C@H]3CN4C(=O)OC(C)(C)C)nc(OC3COC3)nc2c1OCc1ccccc1` (stereo partly drawn), the IC50 stood at 6 nM.
Under `Cc1c(F)cc2c(cnn2C2CCCCO2)c1-c1c(C2CC2)cc2c(N3C[C@@H]4C[C@H]3CN4C(=O)OC(C)(C)C)nc(OC3CCOCC3)nc2c1OCc1ccc(-c2cn([C@H](C(=O)N3C[C@H](O)C[C@H]3C(=O)N[C@H](CO)c3ccc(-c4ccnn4C)cc3)C(C)C)nn2)cc1` (stereo partly drawn) stands 11 nM; under `CCSc1nc(N2C[C@@H]3C[C@H]2CN3C(=O)OC(C)(C)C)c2cc(I)c(Br)c(OCc3ccccc3)c2n1`, 17 nM; under `Cc1ncsc1-c1ccc(C2(NC(=O)[C@@H]3C[C@@H](O)CN3C(=O)[C@H](C(C)C)n3cc(-c4ccc(COc5c(-c6c(C)c(F)cc7c6cnn7C6CCCCO6)c(C6CC6)cc6c(N7C[C@@H]8C[C@H]7CN8C(=O)OC(C)(C)C)nc(OC7CCOCC7)nc56)cc4)nn3)CC2)cc1` (stereo partly drawn), 7 nM.
For the compound `Cc1ncsc1-c1ccc([C@@H](CO)NC(=O)[C@@H]2C[C@@H](O)CN2C(=O)[C@H](C(C)C)n2cc(-c3ccc(COc4c(-c5c(C)c(F)cc6c5cnn6C5CCCCO5)c(C5CC5)cc5c(N6C[C@@H]7C[C@H]6CN7C(=O)OC(C)(C)C)nc(OC6CCOCC6)nc45)cc3)nn2)cc1` (stereo partly drawn), the IC50 turned out to be 8 nM.
